Measured values taken from PubChem BioAssay AID504520 (The Scripps Research Institute Molecular Screening Center, 2011).
Activity calls are given as the source filed them. The rule behind the calls is not given here.

Key:
Test in all cases: competitive ABPP of LYPLA1 versus anti-target hydrolases – fluorescence, gel-based ABPP, mouse proteome, late-stage follow-up (AID 504520);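 note: soluble proteome from BW5147 murine T cells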
Details in all cases: FP-rhodamine fluorescence, stronger effect = higher value
[1] = test system: LYPLA1
[2] = molecular target: Platelet-activating factor acetylhydrolase 2, cytoplasmic (Mus musculus) (UniProt Q8VDG7)
[3] = test system: ESD
[4] = test system: ABHD11
[5] = test system: LYPLA2

Chain of Platelet-activating factor acetylhydrolase 2, cytoplasmic (Mus musculus) (Q8VDG7 whole entry, looked up): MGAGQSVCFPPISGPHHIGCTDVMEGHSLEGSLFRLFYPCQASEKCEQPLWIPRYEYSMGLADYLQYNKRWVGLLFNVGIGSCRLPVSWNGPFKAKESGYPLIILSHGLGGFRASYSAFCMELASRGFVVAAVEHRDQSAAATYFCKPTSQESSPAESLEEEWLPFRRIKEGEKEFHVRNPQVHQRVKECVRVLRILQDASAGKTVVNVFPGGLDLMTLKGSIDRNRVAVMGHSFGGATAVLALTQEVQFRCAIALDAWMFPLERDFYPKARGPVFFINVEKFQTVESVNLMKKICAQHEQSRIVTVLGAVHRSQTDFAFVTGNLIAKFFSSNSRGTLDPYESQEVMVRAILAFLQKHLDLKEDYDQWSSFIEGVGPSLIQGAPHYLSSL

Row | SMILES | inhibition ([1]; at 0.75 µM) | inhibition ([1]; inhibition, at 0.03 µM) [%] | inhibition ([1]; inhibition, at 0.15 µM) [%] | inhibition ([2]; PAFAH2, at 0.75 µM) | inhibition ([2]; PAFAH2, inhibition, at 0.03 µM) [%] | inhibition ([2]; PAFAH2, inhibition, at 0.15 µM) [%] | inhibition ([3]; at 0.75 µM) | inhibition ([3]; inhibition, at 0.03 µM) [%] | inhibition ([3]; inhibition, at 0.15 µM) [%] | inhibition ([4]; at 0.75 µM) | inhibition ([4]; inhibition, at 0.03 µM) [%] | inhibition ([4]; inhibition, at 0.15 µM) [%] | inhibition ([5]; at 0.75 µM) | inhibition ([5]; inhibition, at 0.03 µM) [%] | inhibition ([5]; inhibition, at 0.15 µM) [%]
1 | CC(C)CC(O)(CC(C)C)c1cnn(C(=O)N(c2ccccc2)c2ccccc2)n1 | 0% (inactive) | 0 | 0 | 0% (inactive) | 0 | 0 | 0% (inactive) | 0 | 0 | 50% (inactive) | 0 | 0 | 0% (inactive) | 0 | 0
2 | O=C(N1CCc2ccccc2C1)n1ncc(C(O)(c2ccccc2)c2ccccc2)n1 | 50% (inactive) | 0 | 0 | 100% | 0 | 100 | 25% (inactive) | 0 | 10 | 100% | 100 | 100 | 0% (inactive) | 0 | 0
3 | CN(C(=O)n1ncc(C(O)(c2ccccc2)c2ccccc2)n1)c1ccccc1 | 0% (inactive) | 0 | 0 | 25% (inactive) | 0 | 0 | 0% (inactive) | 0 | 0 | 75% (inactive) | 0 | 0 | 0% (inactive) | 0 | 0
4 | O=C(N(c1ccccc1)c1ccccc1)n1ncc(-c2cc(F)cc(F)c2)n1 | 0% (inactive) | 0 | 0 | 50% (inactive) | 0 | 0 | 0% (inactive) | 0 | 0 | 50% (inactive) | 0 | 0 | 0% (inactive) | 0 | 0
5 | CCC1CCCCN1C(=O)n1ncc(C(O)(c2ccccc2)c2ccccc2)n1 (stereo not given) | 0% (inactive) | 0 | 0 | 0% (inactive) | 0 | 0 | 0% (inactive) | 0 | 0 | 100% | 100 | 100 | 0% (inactive) | 0 | 0
6 | COC1CCN(C(=O)n2ncc(C(O)(c3ccccc3)c3ccccc3)n2)CC1 | 100% | 0 | 50 | 0% (inactive) | 0 | 0 | 25% (inactive) | 0 | 0 | 100% | 100 | 100 | 25% (inactive) | 0 | 0
7 | CC1CCN(C(=O)n2ncc(C(O)(c3ccccc3)c3ccccc3)n2)CC1 | 100% | 50 | 100 | 25% (inactive) | 0 | 0 | 0% (inactive) | 0 | 0 | 100% | 100 | 100 | 50% (inactive) | 0 | 0
8 | O=C(N(c1ccccc1)c1ccc(Br)cc1)n1ncc(C(O)(c2ccccc2)c2ccccc2)n1 | 0% (inactive) | 0 | 0 | 0% (inactive) | 0 | 0 | 0% (inactive) | 0 | 0 | 100% | 0 | 100 | 0% (inactive) | 0 | 0
9 | O=C(OC(c1ccccc1)c1cnn(C(=O)N2CCCCC2)n1)N1CCCCC1 (stereo not given) | 100% | 100 | 100 | 100% | 0 | 100 | 50% (inactive) | 0 | 25 | 100% | 100 | 100 | 25% (inactive) | 0 | 0
